Measurements from article PMC4268243 (Nuclear medicine and biology, 2014).

Experiments:
[1] = test system: SCID mice xenograft tumor models; type: in vivo; details: in most cases, over tumors and time points
[2] = test system: A549 lung adenocarcinoma cells; assay: Amino acid uptake and inhibition in A549 cells; type: cell-based, human; details: A549, 30 minutes incubation
DU145 tumor xenograft = assay: Biodistribution in DU145 tumor-bearing SCID mice; type: in vivo; details: listed as (R)-[^18F] FAMP 1
SKOV3 tumor xenograft = assay: Biodistribution in SKOV3 tumor-bearing SCID mice; type: in vivo; details: listed as (R)-[^18F] FAMP 1
[3] = test system: MDA MB468 tumor xenograft; assay: Biodistribution in MDA MB468 tumor-bearing SCID mice; type: in vivo
U87 glioblastoma cells = assay: Amino acid uptake and inhibition in U87 cells; type: cell-based, human; details: for Cell uptake: U87, 30 minutes incubation
[4] = test system: DU145 androgen-independent prostate carcinoma cells; assay: Amino acid uptake and inhibition in DU145 cells; type: cell-based, human; details: DU145, 30 minutes incubation
[5] = test system: SKOV3 estrogen-positive ovarian adenocarcinoma cells; assay: Amino acid uptake and inhibition in SKOV3 cells; type: cell-based, human; details: for Cell uptake: SKOV3, 30 minutes incubation
[6] = 15 min post injection, listed as (R)-[^18F] FAMP 1
[7] = 30 min post injection, listed as (R)-[^18F] FAMP 1
[8] = 60 min post injection, listed as (R)-[^18F] FAMP 1
[9] = 120 min post injection, listed as (R)-[^18F] FAMP 1

## CC(N)(C[18F])C(=O)O [(R)-[^18F]1] [2-amino-3-[^18F]fluoro-2-methylpropanoic acid]
[1]
  ratio of tumor to muscle: above 2.5
[2]; 10 mM BCH
  Cell uptake: 2.3±0.3 % ID/5×10^5 cells
[2]; 10 mM MeAIB
  Cell uptake: 4.6±0.5 % ID/5×10^5 cells
[2]; Control (no inhibitor)
  Cell uptake: 5.1±0.3 % ID/5×10^5 cells
DU145 tumor xenograft; 15 min post injection
  uptake in blood: 5.2±1.2 %ID/g
  uptake in bone: 3.9±1.0 %ID/g
  uptake in brain: 1.0±0.3 %ID/g
  uptake in heart: 5.8±1.5 %ID/g
  uptake in kidney: 26±7.5 %ID/g
  uptake in liver: 7.2±3.4 %ID/g
  uptake in lung: 7.6±1.8 %ID/g
  uptake in muscle: 2.9±0.7 %ID/g
  uptake in pancreas: 62±20 %ID/g
  uptake in spleen: 17±7.6 %ID/g
  uptake in tumor: 8.8±1.9 %ID/g
DU145 tumor xenograft; 30 min post injection
  uptake in blood: 3.7±0.3 %ID/g
  uptake in bone: 4.0±0.3 %ID/g
  uptake in brain: 1.3±0.1 %ID/g
  uptake in heart: 5.6±0.6 %ID/g
  uptake in kidney: 16±2.2 %ID/g
  uptake in liver: 6.3±0.8 %ID/g
  uptake in lung: 3.1±0.4 %ID/g
  uptake in muscle: 3.5±0.5 %ID/g
  uptake in pancreas: 52±3.8 %ID/g
  uptake in spleen: 13±1.4 %ID/g
  uptake in tumor: 8.4±1.1 %ID/g
DU145 tumor xenograft; 60 min post injection
  uptake in blood: 2.2±0.3 %ID/g
  uptake in bone: 3.2±0.7 %ID/g
  uptake in brain: 1.5±0.3 %ID/g
  uptake in heart: 4.8±1.0 %ID/g
  uptake in kidney: 10±0.8 %ID/g
  uptake in liver: 5.5±1.0 %ID/g
  uptake in lung: 2.0±0.4 %ID/g
  uptake in muscle: 3.0±0.7 %ID/g
  uptake in pancreas: 39±6.9 %ID/g
  uptake in spleen: 11±2.9 %ID/g
  uptake in tumor: 7.9±1.7 %ID/g
DU145 tumor xenograft; 120 min post injection
  uptake in blood: 1.6±0.3 %ID/g
  uptake in bone: 2.6±0.5 %ID/g
  uptake in brain: 1.6±0.2 %ID/g
  uptake in heart: 4.9±0.9 %ID/g
  uptake in kidney: 7.9±0.7 %ID/g
  uptake in liver: 3.6±0.6 %ID/g
  uptake in lung: 2.1±0.8 %ID/g
  uptake in muscle: 2.7±0.8 %ID/g
  uptake in pancreas: 27±4.5 %ID/g
  uptake in spleen: 6.0±0.9 %ID/g
  uptake in tumor: 6.8±0.8 %ID/g
SKOV3 tumor xenograft; 15 min post injection
  uptake in bone: 2.6±1.0 %ID/g
  uptake in brain: 0.7±0.4 %ID/g
  uptake in heart: 4.0±2.1 %ID/g
  uptake in kidney: 17±4.5 %ID/g
  uptake in liver: 4.6±2.5 %ID/g
  uptake in lung: 3.9±1.3 %ID/g
  uptake in muscle: 2.3±1.1 %ID/g
  uptake in pancreas: 38±18 %ID/g
  uptake in spleen: 8.7±3.4 %ID/g
  uptake in tumor: 10±4.8 %ID/g
SKOV3 tumor xenograft; 30 min post injection
  uptake in blood: 2.7±0.3 %ID/g
  uptake in bone: 2.8±0.7 %ID/g
  uptake in brain: 1.0±0.04 %ID/g
  uptake in heart: 4.9±0.1 %ID/g
  uptake in kidney: 14±2.6 %ID/g
  uptake in liver: 5.0±0.7 %ID/g
  uptake in lung: 3.1±0.3 %ID/g
  uptake in muscle: 2.8±0.3 %ID/g
  uptake in pancreas: 41±7.4 %ID/g
  uptake in spleen: 13±3.6 %ID/g
  uptake in tumor: 14±1.1 %ID/g
SKOV3 tumor xenograft; 60 min post injection
  uptake in blood: 2.1±0.1 %ID/g
  uptake in bone: 2.3±0.3 %ID/g
  uptake in brain: 1.0±0.3 %ID/g
  uptake in heart: 4.9±1.1 %ID/g
  uptake in kidney: 10±0.8 %ID/g
  uptake in liver: 4.5±0.3 %ID/g
  uptake in lung: 2.5±0.3 %ID/g
  uptake in muscle: 2.6±0.6 %ID/g
  uptake in pancreas: 34±4.7 %ID/g
  uptake in spleen: 6.8±1.0 %ID/g
  uptake in tumor: 9.0±2.2 %ID/g
SKOV3 tumor xenograft; 120 min post injection
  uptake in blood: 1.5±0.2 %ID/g
  uptake in bone: 1.9±0.4 %ID/g
  uptake in brain: 1.2±0.2 %ID/g
  uptake in heart: 3.6±0.6 %ID/g
  uptake in kidney: 7.0±0.8 %ID/g
  uptake in liver: 2.7±0.5 %ID/g
  uptake in lung: 1.8±0.3 %ID/g
  uptake in muscle: 2.0±0.4 %ID/g
  uptake in pancreas: 19±2.4 %ID/g
  uptake in spleen: 4.5±1.1 %ID/g
  uptake in tumor: 6.2±0.5 %ID/g
[3]; [6]
  uptake in blood: 3.0±0.2 %ID/g
  uptake in bone: 2.7±0.6 %ID/g
  uptake in brain: 0.7±0.2 %ID/g
  uptake in heart: 3.9±0.6 %ID/g
  uptake in kidney: 17±2.3 %ID/g
  uptake in liver: 4.4±0.9 %ID/g
  uptake in lung: 5.4±0.6 %ID/g
  uptake in muscle: 2.2±0.8 %ID/g
  uptake in pancreas: 61±8.4 %ID/g
  uptake in spleen: 8.7±2.2 %ID/g
  uptake in tumor: 6.0±1.8 %ID/g
[3]; [7]
  uptake in blood: 2.0±0.4 %ID/g
  uptake in bone: 2.2±0.6 %ID/g
  uptake in brain: 0.8±0.1 %ID/g
  uptake in heart: 3.5±1.0 %ID/g
  uptake in kidney: 9.1±2.8 %ID/g
  uptake in liver: 4.5±1.0 %ID/g
  uptake in lung: 3.3±1.1 %ID/g
  uptake in muscle: 2.0±0.6 %ID/g
  uptake in pancreas: 39±11 %ID/g
  uptake in spleen: 6.5±1.1 %ID/g
  uptake in tumor: 5.3±1.7 %ID/g
[3]; 60 min post injection
  uptake in tumor: 4.8±1.2 %ID/g
[3]; [8]
  uptake in blood: 1.1±0.3 %ID/g
  uptake in bone: 1.7±0.5 %ID/g
  uptake in brain: 0.8±0.1 %ID/g
  uptake in heart: 3.3±0.8 %ID/g
  uptake in kidney: 5.0±1.1 %ID/g
  uptake in liver: 3.8±0.9 %ID/g
  uptake in lung: 2.2±0.5 %ID/g
  uptake in muscle: 2.0±0.6 %ID/g
  uptake in pancreas: 20±7.2 %ID/g
  uptake in spleen: 4.1±1.3 %ID/g
[3]; [9]
  uptake in blood: 0.5±0.2 %ID/g
  uptake in bone: 1.1±0.5 %ID/g
  uptake in brain: 0.9±0.1 %ID/g
  uptake in heart: 2.3±0.4 %ID/g
  uptake in kidney: 2.4±1.1 %ID/g
  uptake in liver: 4.1±0.8 %ID/g
  uptake in lung: 1.1±0.4 %ID/g
  uptake in muscle: 1.6±0.6 %ID/g
  uptake in pancreas: 11±4.6 %ID/g
  uptake in spleen: 2.2±1.1 %ID/g
  uptake in tumor: 3.6±0.7 %ID/g
U87 glioblastoma cells; 10 mM BCH
  Cell uptake: 4.8±0.3 % ID/5×10^5 cells
U87 glioblastoma cells; 10 mM MeAIB
  Cell uptake: 2.0±0.3 % ID/5×10^5 cells
U87 glioblastoma cells; Control (no inhibitor)
  Cell uptake: 6.0±0.3 % ID/5×10^5 cells
U87 glioblastoma cells; U87 cells, 10 mM BCH, relative to control
  inhibition of uptake by BCH: 20%
U87 glioblastoma cells; U87 cells, 10 mM MeAIB, relative to control
  inhibition of uptake by MeAIB: 67%
[4]; 10 mM BCH
  Cell uptake: 3.3±0.2 % ID/5×10^5 cells
[4]; 10 mM MeAIB
  Cell uptake: 3.6±0.2 % ID/5×10^5 cells
[4]; Control (no inhibitor)
  Cell uptake: 5.1±0.1 % ID/5×10^5 cells
[5]; 10 mM BCH
  Cell uptake: 7.6±0.2 % ID/5×10^5 cells
[5]; 10 mM MeAIB
  Cell uptake: 4.6±0.1 % ID/5×10^5 cells
[5]; Control (no inhibitor)
  Cell uptake: 9.2±0.2 % ID/5×10^5 cells
[5]; SKOV3 cells, 10 mM BCH, relative to control
  inhibition of uptake by BCH: 17%
[5]; SKOV3 cells, 10 mM MeAIB, relative to control
  inhibition of uptake by MeAIB: 50%
